Measured values from BindingDB's records for doi:10.1016/j.bmcl.2009.03.165 (Gsk, 2009).

Target: T1, Beta-secretase 2 (Homo sapiens, UniProt Q9Y5Z0)
T1 sequence (Q9Y5Z0 whole entry): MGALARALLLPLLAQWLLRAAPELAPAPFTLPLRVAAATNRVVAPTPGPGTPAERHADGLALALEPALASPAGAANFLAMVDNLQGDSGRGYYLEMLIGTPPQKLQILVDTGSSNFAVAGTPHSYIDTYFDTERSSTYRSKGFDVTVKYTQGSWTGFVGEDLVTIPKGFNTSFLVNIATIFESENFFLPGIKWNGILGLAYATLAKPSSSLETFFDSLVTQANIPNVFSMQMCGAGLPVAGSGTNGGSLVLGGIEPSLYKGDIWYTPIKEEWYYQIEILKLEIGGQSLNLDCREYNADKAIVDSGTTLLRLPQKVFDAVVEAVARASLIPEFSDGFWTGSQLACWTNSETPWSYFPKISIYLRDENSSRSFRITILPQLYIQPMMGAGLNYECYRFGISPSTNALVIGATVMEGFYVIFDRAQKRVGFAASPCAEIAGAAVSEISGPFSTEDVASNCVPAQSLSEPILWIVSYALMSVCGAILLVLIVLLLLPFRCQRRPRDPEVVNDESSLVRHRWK
Assay: Enzyme Inhibition Assay

IC50: 1.41 µM
SMILES: CCNc1cc(C(=O)N[C@@H](Cc2ccccc2)[C@H](O)CNCc2cccc(C(F)(F)F)c2)cc(N2CCCCS2(=O)=O)c1 [BMCL193664 Compound 24]
